From patent US4165428A, “Indoleacetic acid ester derivatives” (Hisamitsu Pharmaceutical Co., Inc., priority 1976, dated 1979)

Experiments:
[1] = Ulcerogenic activity on rat stomach; assay type: in vivo, Male Wistar rats; conditions: oral, 20 mg/kg, 18 hours after administration; sum of area of erosion and ulcer
Description: Male Wistar rats weighing 200-220 g were fasted for 24 hours. Indomethacin and the test drugs were suspended with 0.5% tragacanth solution, and these suspensions were given the animals orally at each dose of 20 mg/kg. The animals were sacrificed with ether 18 hours after administration. The excised stomachs were filled with 1% formalin solution and the whole were immersed in the 1% formalin solution for fixation. Thereafter, an incision was made parallel to the greater curvature to examine whether or not an erosion or ulcer occurs. The degree of erosion and ulcer was represented by the sum of area (mm^2).

[2] = Acute toxicity (lethal dose); assay type: in vivo; conditions: mice, estimated from death 72 hours following administration
Description: Each test compound suspended in 1% tragacanth-saline was administered intraperitoneally or orally to male mice of ddY-strain (body weight 16-24 g). The lethal dose was estimated from the death of animals 72 hours following administration.

[3] = Anti-inflammatory activity for oral route (carrageenin edema of hind paw); assay type: in vivo, male rats of Wistar-strain; conditions: for anti-inflammatory effect for oral route (relative inhibition versus indomethacin): 10mg/kg, percent inhibition divided by that of indomethacin, edema measured after 3 hours
Description: A group of five male rats of Wistar-strain (body weight 100-150 g) were orally given each test compound suspended in 0.5% tragacanth-saline. After one hour 1.0% carrageenin suspended in the water for injection was injected subcutaneously to a hind paw.

| SMILES | gastric ulcer index [1] [mm^2] | acute toxicity for oral route (lethal dose) [2] [mg/kg] | anti-inflammatory effect for oral route (relative inhibition versus indomethacin) [3] | mean percent inhibition of carrageenin edema ([3]; 10 mg/kg) [%] |
| --- | --- | --- | --- | --- |
| COc1ccc2c(c1)c(CC(=O)OCc1cccc(C)c1)c(C)n2C(=O)c1ccc(Cl)cc1 | 0.13 ± 0.08 | 200 to 500 |  |  |
| COc1ccc2c(c1)c(CC(=O)OCc1ccc(C)cc1)c(C)n2C(=O)c1ccc(Cl)cc1 | 0.88 ± 0.39 | 500 | 1.00 |  |
| COc1ccc2c(c1)c(CC(=O)O)c(C)n2C(=O)c1ccc(Cl)cc1 [indomethacin, reference compound] | 6.75 ± 1.98 | 10 to 20 | 1.0 | 41.1 |
| COc1ccc2c(c1)c(CC(=O)OCc1ccccc1F)c(C)n2C(=O)c1ccc(Cl)cc1 | 0.50 ± 0.30 | > 500 | 0.76 |  |
| COc1ccc2c(c1)c(CC(=O)OCc1cccc(F)c1)c(C)n2C(=O)c1ccc(Cl)cc1 | 0.50 ± 0.38 | > 500 | 0.68 |  |
| COc1ccc2c(c1)c(CC(=O)OCc1ccccc1C)c(C)n2C(=O)c1ccc(Cl)cc1 | 0.19 ± 0.13 | > 500 |  |  |
| COc1ccc2c(c1)c(CC(=O)OCc1ccc(F)cc1)c(C)n2C(=O)c1ccc(Cl)cc1 | 0.13 ± 0.08 | > 500 | 0.41 |  |
